Key:
[1] = Plasma stability of payloads and linker-payloads, mouse plasma; type: in vitro ADME; details: assay time 3 days
Experimental: (§1) The plasma stability of payloads and linker payloads of the disclosure were measured. For the assay, pooled frozen plasma (human, mouse or monkey) was thawed in cold water or a 37° C. water bath prior to experiment. Plasma was centrifuged at 4000 rpm for 5 min if any clots were observed, they were subsequently removed. If required, the pH was adjusted to 7.4±0.1. For the preparation of compounds and positive controls, a 1 mM intermediate solution was prepared by diluting 10 μL of their stock solution with 90 μL DMSO; a 1 mM intermediate solution of the positive control (Propantheline) was prepared by diluting 10 μL of its stock solution with 90 μL ultrapure water. Subsequently, 100 μM dosing solution for each compound was prepared by diluting 20 μL of the intermediate solution (1 mM) with 180 μL 45% MeOH/H2O. 98 μL of plasma was spiked with 2 μL of dosing solution (100 μM) to achieve the final concentration of 2 μM in duplicate. Samples were then incubated at 37° C. in a water bath. […] At each time point, 400 μL of stop solution (200 ng/mL tolbutamide plus 200 ng/mL labetalol in 50% ACN/MeOH) was added to precipitate protein and mixed thoroughly. Sample plates were then centrifuged at 4,000 rpm for 10 min. An aliquot of supernatant (50 μL) was transferred from each well and mixed with 100 μL ultra-pure water. […]

[2] = Liver microsome stability (intrinsic clearance); type: in vitro ADME; details: microsomes
Experimental: To assess the in vitro ADME properties of the LP, microsomal stability assay was performed to determine intrinsic clearance, and plasma protein binding assay was performed to understand the distribution potential.

[3] = target: human glucagon-like peptide 2 receptor (GLP2R) (Homo sapiens (Human), UniProt O95838); test: CRE-luciferase reporter bioassay, HEK293/Myc-hGLP2R/Cre-Luc cell line; type: cell-based; details: GLP2R
Experimental: (§2) Cells were incubated overnight at 37° C. in 5% CO2. […] Plates were incubated for 5.5 h at 37° C. in 5% CO2. For end-point measurement, 100 μL/well of One-Glo reagent (Promega, #E6051) was added and plates were kept at room temperature for 5-10 minutes. Luciferase activity was measured on Envision Multilabel Plate Reader (Perkin Elmer) in Luminescent mode. The relative light units (RLU) values were obtained and the results were analyzed using nonlinear regression with GraphPad Prism software (GraphPad).

HEK293/CRE-Luc cells = test: cAMP responsive luciferase reporter assay, HEK293/CRE-Luc cells (no hGLP1R expression); type: cell-based, human
In short: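 Counter-screen in HEK293 cells carrying CRE-driven firefly luciferase without hGLP1R; 3-fold serial dilutions of payloads or linker-payloads at 0.2% final DMSO, 4–6 h.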

[4] = Plasma stability of payloads and linker-payloads, monkey plasma; type: in vitro ADME; details: assay time 3 days
Experimental: as §1

[5] = target: human glucagon receptor (GCGR) (Homo sapiens (Human), UniProt P47871); test: CRE-luciferase reporter bioassay, HEK293/Myc-hGCGR/Cre-Luc cell line; type: cell-based
Experimental: as §2

[6] = tested on: Salmonella typhimurium TA98 and TA100; test: Mini-Ames reverse mutation assay with and without S9 mix; type: cell-based
Experimental: The objective of this Mini-Ames study was to evaluate the test article LP11, for its ability to induce reverse mutations in the genome of strains of Salmonella typhimurium TA98 and TA100 in the presence and absence of metabolic activation (S9 mixture).
The Mini-Ames assay was conducted for the test article in the presence and absence of the S9 mixture, concurrently with the negative/solvent control (DMSO) using six wells and positive controls (2 μg/well TA98 alone, 0.2 μg/well TA100 alone or 0.4 μg/well TA98+TA100 in the presence of S9) using three wells. The tested dose levels for the test article, in the presence and absence of S9 mix, were 1000, 400, 160, 64, 25, 10, 4, and 1.5 μg per well, with each dose tested in triplicate. The study was conducted using fresh cultures of the bacterial strains and fresh test article formulations.

[7] = human, 4 h, 2 µM
Experimental: An assay was performed to determine the plasma protein binding of compounds of the disclosure. For the assay, on the day of experiment, the plasma was thawed in cold water and centrifuged at 3220 rpm for 5 minutes to remove any clots. The pH value of the resulting plasma was checked
For the dialysis, the test compound and control compound were dissolved in DMSO to achieve 10 mM stock solutions. DMSO working solutions were prepared at 400 μM. To prepare the loading matrix, compound working solutions (5 μL) were added in a 1:200 ratio to blank matrix (995 μL) and mixed thoroughly. To prepare the time zero (TO) samples to be used for recovery determination, 50 μL aliquots of loading matrix were transferred in triplicate to the sample collection plate. The samples were immediately matched with opposite blank buffer to obtain a final volume of 100 μL of 1:1 matrix/dialysis buffer (v/v) in each well. 500 μL of stop solution were added to these TO samples. This was then stored at 2-8° C. pending further processes along with other post-dialysis samples. To load the dialysis device, an aliquot of 150 μL of the loading matrix was transferred to the donor side of each dialysis well in triplicate, and 150 μL of the dialysis buffer was loaded to the receiver side of the well. […]
The percent unbound, percent bound, and percent recovery values were calculated using the following equations: […]

[8] = target: human gastric inhibitory polypeptide receptor (GIPR) (Homo sapiens (Human), UniProt P48546); test: CRE-luciferase reporter bioassay, HEK293/Myc-hGIPR/Cre-Luc cell line; type: cell-based
Experimental: as §2

human GLP1R [9] = target: T1, human GLP1R (Homo sapiens (Human), UniProt P43220); test: cAMP responsive luciferase reporter assay, HEK293/CRE-Luc/hGLP1R cells; type: cell-based
human GLP1R [10] = target: T1, human GLP1R; test: Human GLP1R cAMP accumulation assay (HEK293 cells over-expressing human GLP-1R); type: cell-based; details: HEK293/hGLP1R cells, 30 min
Experimental: The functional activity of the test compounds for agonizing GLP1R were evaluated using a cell-based assay. For the assay, HEK293 cells over-expressing full length human GLP-1R were utilized and the downstream cAMP accumulation was assessed as a measure of human GLP-1R stimulation. […] Diluted compounds were transferred to OptiPlates (100 nL/well) using an Echo liquid handler. HEK293/hGLP1R cells were thawed in 37° C. water-bath, washed 2 times with HBSS and re-suspended in assay buffer (HBSS+5 mM HEPES+500 μM IBMX+0.1% BSA). […] After centrifugation, the assay plate was incubated at 23° C. for 30 min. The reaction was terminated by adding 10 μL of lysis buffer containing D2-cAMP and a cAMP-antibody from the cyclic AMP immunoassay kit (Cisbio, Cat #62AM4PEJ). […] The levels of cAMP per well were calculated using a standard curve generated by GraphPad Prism. […] EC50 values were fitted from a four-parameter logistic equation over a 10-point response curve (GraphPad Prism).

[11] = relative to P8 of the same experiment

T1 sequence (P43220 24-463): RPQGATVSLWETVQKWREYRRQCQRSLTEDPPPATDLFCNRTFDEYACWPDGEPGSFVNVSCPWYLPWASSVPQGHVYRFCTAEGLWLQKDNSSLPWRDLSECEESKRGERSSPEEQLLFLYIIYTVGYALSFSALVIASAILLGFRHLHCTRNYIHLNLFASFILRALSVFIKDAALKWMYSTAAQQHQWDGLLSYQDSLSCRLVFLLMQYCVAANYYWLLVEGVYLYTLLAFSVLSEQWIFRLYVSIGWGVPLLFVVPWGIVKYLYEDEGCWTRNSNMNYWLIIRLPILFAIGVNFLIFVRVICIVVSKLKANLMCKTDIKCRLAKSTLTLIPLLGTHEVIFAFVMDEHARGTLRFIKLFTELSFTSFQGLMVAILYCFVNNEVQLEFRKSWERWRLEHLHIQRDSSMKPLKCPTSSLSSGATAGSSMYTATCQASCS
Chain of human gastric inhibitory polypeptide receptor (GIPR) (P48546 22-466): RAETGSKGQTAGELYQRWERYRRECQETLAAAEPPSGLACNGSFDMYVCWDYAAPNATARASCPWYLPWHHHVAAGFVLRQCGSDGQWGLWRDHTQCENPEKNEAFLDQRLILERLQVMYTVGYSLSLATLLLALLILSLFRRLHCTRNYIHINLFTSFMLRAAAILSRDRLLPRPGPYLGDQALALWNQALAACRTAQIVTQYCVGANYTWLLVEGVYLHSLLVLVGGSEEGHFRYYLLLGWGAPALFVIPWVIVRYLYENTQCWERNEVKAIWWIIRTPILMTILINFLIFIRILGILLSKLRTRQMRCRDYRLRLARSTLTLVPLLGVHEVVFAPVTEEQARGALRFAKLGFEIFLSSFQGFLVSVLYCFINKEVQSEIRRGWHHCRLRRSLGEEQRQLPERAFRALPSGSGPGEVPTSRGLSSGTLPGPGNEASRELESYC
Chain of human glucagon receptor (GCGR) (P47871 26-477): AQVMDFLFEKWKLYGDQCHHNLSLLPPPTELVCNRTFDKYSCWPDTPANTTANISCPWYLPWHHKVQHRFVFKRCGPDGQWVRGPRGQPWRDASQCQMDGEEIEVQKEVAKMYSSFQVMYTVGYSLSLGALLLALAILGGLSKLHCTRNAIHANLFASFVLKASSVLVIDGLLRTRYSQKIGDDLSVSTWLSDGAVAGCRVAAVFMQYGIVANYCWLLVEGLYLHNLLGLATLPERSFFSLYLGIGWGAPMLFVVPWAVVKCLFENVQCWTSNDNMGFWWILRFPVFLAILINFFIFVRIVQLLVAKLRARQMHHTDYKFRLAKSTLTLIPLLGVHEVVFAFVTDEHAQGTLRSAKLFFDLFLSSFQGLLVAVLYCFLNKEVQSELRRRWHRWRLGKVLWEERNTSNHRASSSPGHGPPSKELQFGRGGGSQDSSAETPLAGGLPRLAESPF
Chain of human glucagon-like peptide 2 receptor (GLP2R) (O95838 whole entry): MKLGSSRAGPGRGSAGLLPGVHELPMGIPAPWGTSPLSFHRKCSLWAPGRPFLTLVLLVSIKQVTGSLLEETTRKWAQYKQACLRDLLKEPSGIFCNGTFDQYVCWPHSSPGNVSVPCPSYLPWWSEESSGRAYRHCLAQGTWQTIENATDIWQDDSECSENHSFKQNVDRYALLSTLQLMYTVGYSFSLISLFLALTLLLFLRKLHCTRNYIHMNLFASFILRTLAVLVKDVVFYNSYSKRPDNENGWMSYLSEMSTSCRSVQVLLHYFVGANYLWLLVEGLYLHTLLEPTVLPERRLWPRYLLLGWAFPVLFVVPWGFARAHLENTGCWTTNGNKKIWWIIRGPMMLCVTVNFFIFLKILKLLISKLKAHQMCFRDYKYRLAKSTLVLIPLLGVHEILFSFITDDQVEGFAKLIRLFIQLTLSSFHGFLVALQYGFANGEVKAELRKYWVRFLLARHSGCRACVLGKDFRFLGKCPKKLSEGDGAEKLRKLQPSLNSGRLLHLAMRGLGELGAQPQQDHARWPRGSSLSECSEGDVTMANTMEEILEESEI

Row | SMILES | plasma stability T½ [1] [h] | CLint(liver) [2] [mL/min/kg] | T1/2 [2] [h] | GLP2R, GIPR, or GCGR EC50 [3] | EC50 (HEK293/CRE-Luc cells) [nM] | HEK293/CRE-LUC S/N (HEK293/CRE-Luc cells) | plasma stability T½ [4] [h] | GLP2R, GIPR, or GCGR EC50 [5] | cytotoxicity in tester strains ([6]; 1.5-1000 μg per well, with or without S9 mix) | mutagenicity ([6]; Mini-Ames conclusion) | Ames (TA98 and TA100) in the presence and absence of S9 ([6]; TA98 and TA100, with and without S9) | increase in the mean number of revertant colonies relative to negative/solvent control ([6]; TA98 or TA100, any dose level, presence or absence of S9 mix) [fold] | % Recovery [7] [%] | GLP2R, GIPR, or GCGR EC50 [8] | HEK293/CRE-LUC/hGLP1R S/N (human GLP1R [9]; highest RLU / RLU of untreated wells) | HEK293/CRE-LUC/hGLP1R Relative Potency (% P8 EC50) (human GLP1R [9]; [11]) [%] | HEK293/CRE-LUC/hGLP1R Relative Signal:Noise (% P8) (human GLP1R [9]; [11]) [%] | EC50 (human GLP1R [10]) [nM]
1 | CCc1cc(OCCCCn2cc(COCCOCCOCCOCCOCCOCCOCCOCCN)nn2)ccc1-c1ccc(C[C@H](NC(=O)[C@H](CC(=O)O)NC(=O)[C@H](CO)NC(=O)[C@@H](NC(=O)C(C)(Cc2ccccc2F)NC(=O)[C@@H](NC(=O)CNC(=O)[C@H](Cc2nn[nH]n2)NC(=O)C(C)(C)C(=O)NCCc2cnc[nH]2)[C@@H](C)O)[C@@H](C)O)C(=O)N[C@@H](CCCc2cc(C)cc(C)c2)C(N)=O)cc1 (stereo partly drawn) [LP11, NH2-PEG8-triazole-P8] | >140 | <8.6 | >2.42 | Completely inactive | > 200 | 1.3 | >49.4 | Completely inactive | no obvious cytotoxicity | negative for mutagenicity | Negative for | ≤ 2.0 | 89.2 | Completely inactive | 74.5 | 33.1 | 113.3 | 
2 | CCc1cc(OCCCCNC(=O)CNC(=O)CNC(=O)CNC(=O)CNC(=O)[C@H](CO[C@@H]2OC(CO)[C@@H](O)[C@H](O)C2O)NC(=O)CCNC(=O)OC[C@@H]2[C@@H]3CCC#CCC[C@@H]32)ccc1-c1ccc(C[C@H](NC(=O)[C@H](CC(=O)O)NC(=O)[C@H](CO)NC(=O)[C@@H](NC(=O)[C@](C)(Cc2ccccc2F)NC(=O)[C@@H](NC(=O)CNC(=O)[C@H](Cc2nn[nH]n2)NC(=O)C(C)(C)C(=O)NCCc2cnc[nH]2)[C@@H](C)O)[C@@H](C)O)C(=O)N[C@@H](CCCc2cc(C)cc(C)c2)C(N)=O)cc1 (stereo partly drawn) [LP18, BCN-NHC2H4CO-(glucose) SG4-P9] |  |  |  |  |  |  |  |  |  |  |  |  |  |  |  |  |  | 0.458
